Patent US7820720B2 (TDT Limited, priority 2008, dated 2010)

Assay: Terbinafine serum concentration after topical administration (LC-MSMS)
Format: in vivo, human
Conditions: topical terbinafine formulation, 6.0 mg dose; day 1 and week 12; all individuals, each time point, steady state and all trough levels
Method: Blood samples (2.7 ml) for the determination of terbinafine concentrations in serum were taken before the first application (0 hour) and 0.5, 1, 2, 4, 8, and 12 hours after administration of a 6.0 mg dose of topical terbinafine. The sample 12 hours following the first administration was taken before the second daily administration of the topical terbinafine formulation.
Serum samples for terbinafine were analyzed by LC-MSMS. The internal standard used was naftifine. Samples were prepared by adding 50 μL serum to 50 μL methanol and 300 μL of internal standard solution (50 μg/L naftifine in 9:1 acetonitrile/methanol solution). The solution was allowed to stand for 5 minutes, and then subjected to centrifugation. After centrifugation, 50 μL of the supernatant was added to 450 μL of the mobile phase solution.
The serum concentrations were measured at day 1 and week 12 of the study.

- Terbinafine serum concentration: less than 1 ng/ml
SMILES: CN(C/C=C/C#CC(C)(C)C)Cc1cccc2ccccc12 [terbinafine]
